According to US20240382483A1, “HETEROCYCLIC EGFR INHIBITORS FOR USE IN THE TREATMENT OF CANCER” (Blueprint Medicines Corporation, priority 2021, published 2024):
Like-named read-outs stand apart in the source and are kept apart here.

Key:
EGFR (L858R T790M C797S) = target: T1, EGFR (L858R T790M C797S) (Homo sapiens, UniProt P00533, C797S/L858R/T790M); assay: Biochemical EGFR inhibition assay (Caliper mobility shift), EGFR LRTMCS
T1 construct: purchased SignalChem E10-122VG
Method in brief: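 Apparent IC50s were derived by plotting percent activity against the log of compound concentration. Activity was measured as phosphopeptide electrophoretically separated from substrate, after reactions at room temperature reached 10% to 20% phosphorylation and were halted with 35 mM EDTA.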

[1] = target: T2, intracellular phosphorylation of EGFR in NCI-H1975 cell line that harbors the EGFR L858R T790M mutations (Homo sapiens, UniProt P00533, L858R/T790M); assay: NCI-H1975 pEGFR AlphaLISA assay; type: cell-based; settings: NCI-H1975 cells (EGFR L858R T790M), p-EGFR (Tyr1068), 4-5 hours incubation; read-out: Ext pEGFR H1975 GMean IC50 (nM) Protocol: @Pharmaron AlphaLISA (Num)
T2 construct: NCI-H1975 cell line that harbors the EGFR L858R T790M mutations (ATCC, CRL-5908); host or cells: NCI-H1975
T2 sequence (P00533 25-1210 T790M/L858R): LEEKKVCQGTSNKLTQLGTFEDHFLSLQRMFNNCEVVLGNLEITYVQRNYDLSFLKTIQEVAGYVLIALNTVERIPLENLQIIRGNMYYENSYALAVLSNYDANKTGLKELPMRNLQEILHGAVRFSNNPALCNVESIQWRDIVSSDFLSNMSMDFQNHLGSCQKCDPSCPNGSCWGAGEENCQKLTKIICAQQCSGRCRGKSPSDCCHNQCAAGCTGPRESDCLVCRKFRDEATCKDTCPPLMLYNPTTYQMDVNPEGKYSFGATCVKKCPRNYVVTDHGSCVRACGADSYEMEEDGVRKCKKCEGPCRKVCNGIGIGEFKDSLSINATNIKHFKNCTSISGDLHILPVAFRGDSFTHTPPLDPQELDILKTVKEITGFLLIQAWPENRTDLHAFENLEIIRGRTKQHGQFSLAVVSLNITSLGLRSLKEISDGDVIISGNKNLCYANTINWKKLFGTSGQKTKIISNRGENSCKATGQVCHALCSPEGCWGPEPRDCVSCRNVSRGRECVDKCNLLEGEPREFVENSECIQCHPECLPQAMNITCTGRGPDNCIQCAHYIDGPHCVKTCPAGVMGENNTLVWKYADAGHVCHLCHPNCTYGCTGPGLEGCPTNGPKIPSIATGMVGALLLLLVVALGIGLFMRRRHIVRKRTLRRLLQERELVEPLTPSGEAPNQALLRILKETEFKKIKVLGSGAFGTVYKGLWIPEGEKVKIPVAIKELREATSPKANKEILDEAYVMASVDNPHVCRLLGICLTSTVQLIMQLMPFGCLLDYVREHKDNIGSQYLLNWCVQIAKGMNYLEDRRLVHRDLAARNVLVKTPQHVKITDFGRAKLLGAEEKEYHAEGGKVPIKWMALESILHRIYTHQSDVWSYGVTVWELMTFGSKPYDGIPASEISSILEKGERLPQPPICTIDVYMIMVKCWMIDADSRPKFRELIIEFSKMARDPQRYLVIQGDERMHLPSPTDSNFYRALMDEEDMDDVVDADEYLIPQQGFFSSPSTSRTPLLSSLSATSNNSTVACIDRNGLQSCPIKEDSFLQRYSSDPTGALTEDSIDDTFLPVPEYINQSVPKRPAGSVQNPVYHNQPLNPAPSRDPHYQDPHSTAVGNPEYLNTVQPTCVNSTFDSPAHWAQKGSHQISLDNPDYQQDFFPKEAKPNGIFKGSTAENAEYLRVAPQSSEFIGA
Method: On the next day, the test compounds and DMSO control were added into H1975 cell plate followed by incubation at 37C/5% CO2 for 4-5 hours. […] Then 5 μL of a donor bead mix was added to each well followed by overnight incubation at room temperature in dark. On the next day, the plate was read at a compatible plate reader to obtain pEGFR signal. Percent of pEGFR inhibition was plotted against log concentration of compounds to generate IC50 values.

[2] = LRTMCS (PH) IC50 (nM) @ 1 mM ATP (Num), EGFR LRTMCS mutant

T1 sequence (P00533 25-1210 T790M/C797S/L858R): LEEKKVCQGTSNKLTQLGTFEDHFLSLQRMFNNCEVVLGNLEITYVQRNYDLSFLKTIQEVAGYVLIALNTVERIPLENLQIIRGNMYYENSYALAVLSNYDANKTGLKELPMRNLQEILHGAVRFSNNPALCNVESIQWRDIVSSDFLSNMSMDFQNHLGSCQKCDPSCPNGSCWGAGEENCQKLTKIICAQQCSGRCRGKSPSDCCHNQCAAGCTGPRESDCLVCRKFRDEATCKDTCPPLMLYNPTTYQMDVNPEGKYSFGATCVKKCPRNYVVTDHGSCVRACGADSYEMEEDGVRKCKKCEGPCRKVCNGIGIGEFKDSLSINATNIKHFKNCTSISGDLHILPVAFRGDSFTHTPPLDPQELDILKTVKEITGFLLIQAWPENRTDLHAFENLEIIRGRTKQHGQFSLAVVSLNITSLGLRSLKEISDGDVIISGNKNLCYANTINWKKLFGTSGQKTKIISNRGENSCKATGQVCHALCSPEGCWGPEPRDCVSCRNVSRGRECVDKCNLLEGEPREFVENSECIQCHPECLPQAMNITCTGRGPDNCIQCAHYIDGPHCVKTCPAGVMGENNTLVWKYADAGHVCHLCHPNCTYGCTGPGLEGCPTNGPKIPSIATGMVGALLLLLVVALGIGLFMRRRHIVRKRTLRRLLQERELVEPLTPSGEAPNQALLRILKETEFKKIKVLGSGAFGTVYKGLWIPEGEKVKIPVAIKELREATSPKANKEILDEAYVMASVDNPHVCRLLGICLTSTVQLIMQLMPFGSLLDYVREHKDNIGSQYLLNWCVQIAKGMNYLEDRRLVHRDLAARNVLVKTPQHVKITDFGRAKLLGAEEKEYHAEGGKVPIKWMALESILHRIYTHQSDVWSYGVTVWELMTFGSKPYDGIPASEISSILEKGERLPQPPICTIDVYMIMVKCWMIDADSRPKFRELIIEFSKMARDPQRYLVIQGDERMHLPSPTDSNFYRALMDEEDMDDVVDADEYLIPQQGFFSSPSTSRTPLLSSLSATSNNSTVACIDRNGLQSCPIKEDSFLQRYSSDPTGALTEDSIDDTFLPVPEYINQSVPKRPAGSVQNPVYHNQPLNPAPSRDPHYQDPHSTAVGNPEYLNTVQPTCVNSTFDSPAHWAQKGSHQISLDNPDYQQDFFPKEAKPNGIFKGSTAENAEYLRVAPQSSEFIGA

Row | Compound | IC50 (EGFR (L858R T790M C797S); [2]) [nM] | IC50 [1] [nM] | IC50 (EGFR (L858R T790M C797S); read-out: LRTMCS (PH) IC50 (nM) @ 1 mM ATP (Num), EGFR LRTMCS mutant) [nM]
1 | C[C@H](c1cnc(N2CC[C@H]2C)c2cnc(Nc3ccnc(N4CC[C@@H](O)[C@@](C)(F)C4)n3)cc12)C1COC1 (single isomer, unassigned) [Example 176, (3S,4R)-3-fluoro-3-methyl-1-(4-((8-((R)-2-methylazetidin-1-yl)-5-((S)-1-(oxetan-3-yl)ethyl)-2,7-naphthyridin-3-yl)amino)pyrimidin-2-yl)piperidin-4-ol or (3S,4R)-3-fluoro-3-methyl-1-(4-((8-((R)-2-methylazetidin-1-yl)-5-((R)-1-(oxetan-3-yl)ethyl)-2,7-naphthyridin-3-yl)amino)pyrimidin-2-yl)piperidin-4-ol] | < 15 | 20 to 30 | 
2 | CC(=O)N1CC(Cc2ccc(C(C)C)c3cc(Nc4ccnc(N5CC[C@@H](O)[C@@](C)(F)C5)n4)ncc23)C1 [Example 2, 1-(3-((3-((2-((3S,4R)-3-fluoro-4-hydroxy-3-methylpiperidin-1-yl)pyrimidin-4-yl)amino)-5-isopropylisoquinolin-8-yl)methyl)azetidin-1-yl)ethan-1-one] | < 15 | > 50 | 
3 | CO[C@H]1CCN(c2nccc(Nc3cc4c(C(C)C)cnc(N5C[C@H](O)[C@H]5C)c4cn3)n2)C[C@H]1F [Example 149, (2R,3S)-1-(6-((2-((3R,4S)-3-fluoro-4-methoxypiperidin-1-yl)pyrimidin-4-yl)amino)-4-isopropyl-2,7-naphthyridin-1-yl)-2-methylazetidin-3-ol] | < 15 | 10 to 20 | 
4 | CC(C)c1cnc(N2CC(C(F)F)C2)c2cnc(Nc3ccnc(N4CC[C@@H](O)[C@@](C)(F)C4)n3)cc12 [Example 55, (3S,4R)-1-(4-((8-(3-(difluoromethyl)azetidin-1-yl)-5-isopropyl-2,7-naphthyridin-3-yl)amino)pyrimidin-2-yl)-3-fluoro-3-methylpiperidin-4-ol] | < 15 | 10 to 20 | 
5 | CC(C)c1cnc(N2Cc3cnn(C)c3C2)c2cnc(Nc3ccnc(N4CC[C@@H](O)[C@@](C)(F)C4)n3)cc12 [Example 90, (3S,4R)-3-fluoro-1-(4-((5-isopropyl-8-(1-methyl-4,6-dihydropyrrolo[3,4-c]pyrazol-5(1H)-yl)-2,7-naphthyridin-3-yl)amino)pyrimidin-2-yl)-3-methylpiperidin-4-ol] | < 15 | 30 to 50 | 
6 | CO[C@H]1CN(c2ncc(C(C)C)c3cc(Nc4ccnc(N5CC[C@@H](O)[C@@](C)(F)C5)n4)ncc23)[C@@H]1C [Example 107, (3S,4R)-3-fluoro-1-(4-((5-isopropyl-8-((2R,3S)-3-methoxy-2-methylazetidin-1-yl)-2,7-naphthyridin-3-yl)amino)pyrimidin-2-yl)-3-methylpiperidin-4-ol] | < 15 | < 10 | 
7 | COCC1CN(c2ncc(C(C)C)c3cc(Nc4ccnc(N5CC[C@@H](O)[C@@](C)(F)C5)n4)ncc23)C1 [Example 66, (3S,4R)-3-fluoro-1-(4-((5-isopropyl-8-(3-(methoxymethyl)azetidin-1-yl)-2,7-naphthyridin-3-yl)amino)pyrimidin-2-yl)-3-methylpiperidin-4-ol] | 20 to 30 | 30 to 50 | 
8 | CC(C)c1cnc(-c2ccn(C3COC3)n2)c2cnc(Nc3ccnc(N4CC[C@@H](O)[C@@](C)(F)C4)n3)cc12 [Example 21, (3S,4R)-3-fluoro-1-(4-((5-isopropyl-8-(1-(oxetan-3-yl)-1H-pyrazol-3-yl)-2,7-naphthyridin-3-yl)amino)pyrimidin-2-yl)-3-methylpiperidin-4-ol] | < 15 | > 50 | 
9 | C[C@H](CC#N)c1cnc(N2CC[C@H]2C)c2cnc(Nc3ccnc(N4CC[C@@H](O)[C@@](C)(F)C4)n3)cc12 (single isomer, unassigned) [Example 37, (R)-3-(6-((2-((3S,4R)-3-fluoro-4-hydroxy-3-methylpiperidin-1-yl)pyrimidin-4-yl)amino)-1-((R)-2-methylazetidin-1-yl)-2,7-naphthyridin-4-yl)butanenitrile or (S)-3-(6-((2-((3S,4R)-3-fluoro-4-hydroxy-3-methylpiperidin-1-yl)pyrimidin-4-yl)amino)-1-((R)-2-methylazetidin-1-yl)-2,7-naphthyridin-4-yl)butanenitrile] |  | 10 to 20 | < 15
10 | CC(C)c1cnc(N2CCC3(C2)CC3(F)F)c2cnc(Nc3ccnc(N4CC[C@@H](O)[C@@](C)(F)C4)n3)cc12 (stereo partly drawn) [Example 63, (3S,4R)-1-(4-((8-(1,1-difluoro-5-azaspiro[2.4]heptan-5-yl)-5-isopropyl-2,7-naphthyridin-3-yl)amino)pyrimidin-2-yl)-3-fluoro-3-methylpiperidin-4-ol] | 15 to 20 | 20 to 30 | 
11 | C[C@@H]1CCN1c1ncc([C@@H](C)C(C)(C)O)c2cc(Nc3ccnc(N4CC[C@@H](O)[C@@](C)(F)C4)n3)ncc12 (single isomer, unassigned) [Example 186, (3S,4R)-3-fluoro-1-(4-((5-((R)-3-hydroxy-3-methylbutan-2-yl)-8-((R)-2-methylazetidin-1-yl)-2,7-naphthyridin-3-yl)amino)pyrimidin-2-yl)-3-methylpiperidin-4-ol or (3S,4R)-3-fluoro-1-(4-((5-((S)-3-hydroxy-3-methylbutan-2-yl)-8-((R)-2-methylazetidin-1-yl)-2,7-naphthyridin-3-yl)amino)pyrimidin-2-yl)-3-methylpiperidin-4-ol] | < 15 | 10 to 20 | 
12 | COCCN1CC2(CCN2c2ncc(C(C)C)c3cc(Nc4ccnc(N5CC[C@@H](O)[C@@](C)(F)C5)n4)ncc23)C1 [Example 64, (3S,4R)-3-fluoro-1-(4-((5-isopropyl-8-(6-(2-methoxyethyl)-1,6-diazaspiro[3.3]heptan-1-yl)-2,7-naphthyridin-3-yl)amino)pyrimidin-2-yl)-3-methylpiperidin-4-ol] | < 15 | 30 to 50 | 
13 | CC(C)c1ncc(N2CCC23CN(C)C3)c2cnc(Nc3ccnc(N4CC[C@@H](O)[C@@](C)(F)C4)n3)cc12 [Example 195, (3S,4R)-3-fluoro-1-(4-((5-isopropyl-8-(6-methyl-1,6-diazaspiro[3.3]heptan-1-yl)-2,6-naphthyridin-3-yl)amino)pyrimidin-2-yl)-3-methylpiperidin-4-ol] | 20 to 30 | 30 to 50 | 
14 | C[C@H](C#N)c1ncc(N2CC[C@H]2C)c2cnc(Nc3ccnc(N4CC[C@@H](O)[C@@](C)(F)C4)n3)cc12 (single isomer, unassigned) [Example 157, (S)-2-(7-((2-((3S,4R)-3-fluoro-4-hydroxy-3-methylpiperidin-1-yl)pyrimidin-4-yl)amino)-4-((R)-2-methylazetidin-1-yl)-2,6-naphthyridin-1-yl)propanenitrile or (R)-2-(7-((2-((3S,4R)-3-fluoro-4-hydroxy-3-methylpiperidin-1-yl)pyrimidin-4-yl)amino)-4-((R)-2-methylazetidin-1-yl)-2,6-naphthyridin-1-yl)propanenitrile] | < 15 | > 50 | 
15 | C[C@@H]1CCN1c1ncc([C@@H](C)C(=O)N(C)C)c2cc(Nc3ccnc(N4CC[C@@H](O)[C@@](C)(F)C4)n3)ncc12 (single isomer, unassigned) [Example 185, (R)-2-(6-((2-((3S,4R)-3-fluoro-4-hydroxy-3-methylpiperidin-1-yl)pyrimidin-4-yl)amino)-1-((R)-2-methylazetidin-1-yl)-2,7-naphthyridin-4-yl)-N,N-dimethylpropanamide or (S)-2-(6-((2-((3S,4R)-3-fluoro-4-hydroxy-3-methylpiperidin-1-yl)pyrimidin-4-yl)amino)-1-((R)-2-methylazetidin-1-yl)-2,7-naphthyridin-4-yl)-N,N-dimethylpropanamide] | 20 to 30 | > 50 | 
16 | C[C@H](CC#N)c1cnc(N2CC[C@H]2C)c2cnc(Nc3ccnc(N4CC[C@@H](O)[C@@](C)(F)C4)n3)cc12 (single isomer, unassigned) [Example 36, (R)-3-(6-((2-((3S,4R)-3-fluoro-4-hydroxy-3-methylpiperidin-1-yl)pyrimidin-4-yl)amino)-1-((R)-2-methylazetidin-1-yl)-2,7-naphthyridin-4-yl)butanenitrile or (S)-3-(6-((2-((3S,4R)-3-fluoro-4-hydroxy-3-methylpiperidin-1-yl)pyrimidin-4-yl)amino)-1-((R)-2-methylazetidin-1-yl)-2,7-naphthyridin-4-yl)butanenitrile] | < 15 | < 10 | 
17 | CC(C)c1cnc(N2CC[C@@H]2C)c2cnc(Nc3ccnc(N4CC[C@H](O)[C@H](F)C4)n3)cc12 (single isomer, unassigned) [Example 160, (3R,4S)-3-fluoro-1-(4-((5-isopropyl-8-((S)-2-methylazetidin-1-yl)-2,7-naphthyridin-3-yl)amino)pyrimidin-2-yl)piperidin-4-ol or (3R,4S)-3-fluoro-1-(4-((5-isopropyl-8-((R)-2-methylazetidin-1-yl)-2,7-naphthyridin-3-yl)amino)pyrimidin-2-yl)piperidin-4-ol] | < 15 | 10 to 20 | 
